Assay results taken from ChEMBL document CHEMBL5052819, “Peptide targeting gip and glp-2 receptors for treating bone disorders” (2020).
Active and inactive are the calls of the source. The calls are words filed in the database; no cut-off is given here.

How the values were obtained:
[1] = system: RAW264.7; assay: Inhibition of RANKL-induced osteoclastogenesis in mouse RAW264.7 cells measured after 110 hrs by TRAcP staining based assay; format: functional, cell-based; conditions: RAW264.7, 110 h
[2] = system: Mus musculus; assay: Anti-osteoporosis activity in ovariectomized BALB/c mouse at 25 nmol/kg, sc assessed as reduction in trabecular spacing; format: functional; parameters: scale not given: the % may be the effect or the level left
[3] = Toxicity in ovariectomized BALB/c mouse at 25 nmol/kg, sc assessed as effect on morphological changes in liver; format: organism-based; conditions: in vivo
[4] = system: Mus musculus; assay: Anti-osteoporosis activity in ovariectomized BALB/c mouse at 100 nmol/kg, sc assessed as decrease in augmented acid phosphate content heterogeneity; format: functional; parameters: scale not given: the % may be the effect or the level left
[5] = Toxicity in ovariectomized BALB/c mouse at 25 nmol/kg, sc assessed as effect on morphological changes in pancreas; format: organism-based; conditions: in vivo
[6] = system: Mus musculus; assay: Anti-osteoporosis activity in ovariectomized BALB/c mouse at 100 nmol/kg/day, sc assessed as increase in work-to-fracture of cortical bone; format: functional
[7] = system: Mus musculus; assay: Anti-osteoporosis activity in ovariectomized BALB/c mouse at 100 nmol/kg/day, sc assessed as increase in post-yield displacement of cortical bone; format: functional
[8] = system: Mus musculus; assay: Anti-osteoporosis activity in ovariectomized BALB/c mouse at 25 to 100 nmol/kg/day, sc assessed as reduction in trabecular bone stiffness; format: functional, organism-based; conditions: dose 25-100 nmol/kg
[9] = system: Mus musculus; assay: Anti-osteoporosis activity in ovariectomized BALB/c mouse at 100 nmol/kg, sc assessed as decrease in mean phosphate/amide ratio; format: functional; parameters: scale not given: the % may be the effect or the level left
[10] = system: Mus musculus; assay: Anti-osteoporosis activity in ovariectomized BALB/c mouse at 25 to 100 nmol/kg/day, sc assessed as effect on cortical bone microarchitecture; format: functional, organism-based; conditions: dose 25-100 nmol/kg
[11] = system: Mus musculus; assay: Anti-osteoporosis activity in ovariectomized BALB/c mouse at 100 nmol/kg/day, sc assessed as increase in ultimate displacement of cortical bone; format: functional
[12] = system: Mus musculus; assay: Anti-osteoporosis activity in ovariectomized BALB/c mouse at 100 microg/kg, iv assessed as increase in trabecular number; format: functional; conditions: dose 100 µg/kg
[13] = system: Mus musculus; assay: Anti-osteoporosis activity in ovariectomized BALB/c mouse at 100 microg/kg, iv assessed as reduction in trabecular bone stiffness; format: functional, organism-based; conditions: dose 100.0 µg/kg
[14] = Toxicity in ovariectomized BALB/c mouse assessed as effect on body mass at 100 microg/kg, iv; conditions: in vivo, 0.1 mg/kg, dose 100 µg/kg
[15] = system: Mus musculus; assay: Anti-osteoporosis activity in ovariectomized BALB/c mouse at 100 microg/kg, iv assessed as effect on cortical bone microarchitecture; format: functional, organism-based; conditions: dose 100.0 µg/kg
[16] = system: Mus musculus; assay: Anti-osteoporosis activity in ovariectomized BALB/c mouse at 100 microg/kg, iv assessed as increase in mineral crystallinity heterogeneity; format: functional; conditions: dose 100 µg/kg
[17] = system: Mus musculus; assay: Anti-osteoporosis activity in ovariectomized BALB/c mouse at 100 microg/kg, iv assessed as increase in trabecular bone mass; format: functional; conditions: dose 100 µg/kg

Compound	IC50 [1]	Activity [2]	Activity [3]	Activity [4]	Activity [5]	Activity [6]	Activity [7]	Activity [8]	Activity [9]	Activity [10]	Activity [11]	Activity [12]	Activity [13]	Activity [14]	Activity [15]	Activity [16]	Activity [17]
CC[C@H](C)[C@H](NC(=O)[C@H](CO)NC(=O)[C@H](Cc1ccccc1)NC(=O)[C@H](CC(=O)O)NC(=O)[C@H](CO)NC(=O)CNC(=O)[C@H](Cc1ccccc1)NC(=O)[C@H](CO)NC(=O)CNC(=O)[C@H](CCC(=O)O)NC(=O)CNC(=O)[C@@H](N)Cc1cnc[nH]1)C(=O)N[C@@H](C)C(=O)N[C@@H](CC(C)C)C(=O)N[C@@H](CC(=O)O)C(=O)N[C@@H](CCCCN)C(=O)N[C@@H](CC(C)C)C(=O)N[C@@H](C)C(=O)N[C@@H](C)C(=O)N[C@@H](CCCNC(=N)N)C(=O)N[C@@H](CC(=O)O)C(=O)N[C@@H](Cc1ccccc1)C(=O)N[C@H](C(=O)N[C@@H](CC(N)=O)C(=O)N[C@@H](Cc1c[nH]c2ccccc12)C(=O)N[C@@H](CC(C)C)C(=O)N[C@@H](CC(C)C)C(=O)N[C@@H](CCC(N)=O)C(=O)N[C@H](C(=O)N[C@@H](CCCCN)C(N)=O)[C@@H](C)O)C(C)C	0.036 nM	17%	Non-Toxic	18%	Non-Toxic	33%	62%	Active	5%	inactive	33%						
O.O=P(O)(O)C(O)(Cn1ccnc1)P(=O)(O)O [ZOLEDRONIC ACID]												12%	Active	Non-Toxic	inactive	21%	15%
